Experiments:
rat [1] = conditions: Carcinogenicity, fischer, Oral, Water, dose end: 104 week, group: systemic
mouse [2] = conditions: Carcinogenicity; other; Injection; Intraperitoneal; dose end: 50 week; group: systemic; systemic / pathology microscopic / lung / adenoma + systemic / pathology microscopic / lymph node / leukemia granulocytic + systemic / …
rat [3] = conditions: Subchronic oral toxicity in rodents, fischer, Feed, dose end: 13 week, group: systemic
mouse [4] = conditions: Subchronic oral toxicity in rodents, b6c3f1, Feed, dose end: 13 week, group: systemic
rat [5] = conditions: Carcinogenicity, fischer, Oral, Feed, dose end: 103 week, group: systemic
mouse [6] = conditions: Multigenerational reproductive toxicity study, cd1, Oral, Feed, dose end: 2 generation
rat [7] = conditions: Sub-acute repeat dose toxicity, fischer, Oral, Feed, dose end: 14 day, group: systemic
mouse [8] = conditions: Carcinogenicity, b6c3f1, Oral, Feed, dose end: 103 week, group: systemic
rat [9] = conditions: Prenatal developmental toxicity study, sprague dawley, Oral, Gavage/Intubation, dose end: 15 GD
rabbit = conditions: Prenatal developmental toxicity study, new zealand white, Oral, Gavage/Intubation, dose end: 19 GD, group: maternal
rat [10] = conditions: Subchronic oral toxicity in rodents, fischer, Gavage/Intubation, dose end: 24 week, group: systemic
mouse [11] = conditions: Subchronic oral toxicity in rodents, b6c3f1, Gavage/Intubation, dose end: 20 week, group: systemic, systemic / pathology microscopic / liver / hyperplasia + systemic / pathology microscopic / stomach / hyperkeratosis + systemic / pathology …
rat [12] = conditions: Carcinogenicity, fischer, Oral, Gavage/Intubation, dose end: 2 year, group: systemic
mouse [13] = conditions: Carcinogenicity; b6c3f1; Oral; Gavage/Intubation; dose end: 2 year; group: systemic; systemic / pathology microscopic / stomach / carcinoma + systemic / pathology microscopic / stomach / papilloma + systemic / in life …
rat [14] = conditions: Combined chronic toxicity/carcinogenicity; sprague dawley; Oral; Gavage/Intubation; dose end: 52 week; group: systemic; systemic / pathology microscopic / stomach / [other] + systemic / pathology microscopic / stomach / carcinoma + systemic / pathology …
mouse [15] = conditions: Subchronic oral toxicity in rodents, b6c3f1, Gavage/Intubation, dose end: 13 week, group: systemic
rat [16] = conditions: Fertility (Segment I), sprague dawley, Oral, Gavage/Intubation, dose end: 0 day
rat [17] = conditions: Combined chronic toxicity/carcinogenicity, fischer, Oral, Gavage/Intubation, dose end: 105 week, group: systemic
rat [18] = conditions: Subchronic oral toxicity in rodents, fischer, Gavage/Intubation, dose end: 13 week, group: systemic
rat [19] = conditions: Multigenerational reproductive toxicity study, sprague dawley, Oral, Gavage/Intubation, dose end: 2 generation
mouse [20] = conditions: Combined chronic toxicity/carcinogenicity, b6c3f1, Oral, Gavage/Intubation, dose end: 104 week, group: systemic
[21] = systemic / in life observation / body weight / body weight gain + systemic / in life observation / water consumption / water consumption + …
[22] = systemic / in life observation / water consumption / water consumption
[23] = systemic / organ weight / kidney / relative to body weight + systemic / organ weight / liver / relative to body weight
[24] = systemic / in life observation / body weight / body weight + systemic / pathology microscopic / liver / mineralization + systemic / …
[25] = systemic / pathology microscopic / kidney / nephropathy
[26] = systemic / pathology microscopic / kidney / nephropathy + systemic / pathology microscopic / kidney / hyperplasia + systemic / pathology …
[27] = group: offspring, systemic / in life observation / body weight / offspring (pup) weight
[28] = group: parental, systemic / in life observation / body weight / body weight + systemic / organ weight / brain / relative to body weight + systemic / organ …
[29] = group: reproductive, reproductive / offspring survival early / birth index / birth index + reproductive / offspring survival early / live fetuses / live fetuses
[30] = systemic / in life observation / food consumption / food consumption
[31] = systemic / in life observation / food consumption / food consumption + systemic / in life observation / body weight / body weight
[32] = systemic / in life observation / body weight / body weight + systemic / pathology microscopic / thyroid gland / hyperplasia
[33] = group: developmental, developmental / developmental malformation / ureter / distended
[34] = group: maternal, systemic / in life observation / clinical signs / general pallor + systemic / in life observation / clinical signs / pale and/or opaque eyes…
[35] = reproductive / offspring survival early / offspring survival early other / NOS
[36] = systemic / in life observation / body weight / body weight gain + systemic / in life observation / mortality / mortality + systemic / …
[37] = systemic / pathology microscopic / blood / leukemia + systemic / pathology microscopic / stomach / carcinoma + systemic / pathology …
[38] = systemic / pathology microscopic / stomach / carcinoma + systemic / pathology microscopic / stomach / papilloma + systemic / pathology …
[39] = systemic / clinical chemistry / thyroxine (t4) / thyroxine (t4), total + systemic / hematology / reticulocyte / reticulocyte + systemic / …
[40] = group: maternal, reproductive / reproductive performance / fertility / fertility
[41] = group: parental, systemic / in life observation / body weight / body weight gain + systemic / in life observation / food consumption / food consumption + …
[42] = group: parental, systemic / pathology microscopic / testes / delayed spermiation, retained spermatids + systemic / pathology microscopic / testes / immature …
[43] = systemic / pathology microscopic / kidney / mineralization + systemic / pathology microscopic / kidney / nephropathy
[44] = systemic / in life observation / body weight / body weight + systemic / pathology gross / sperm measure / sperm motility
[45] = systemic / in life observation / body weight / body weight + systemic / pathology microscopic / pituitary gland / hyperplasia + systemic / …
[46] = group: parental, systemic / in life observation / body weight / body weight + systemic / in life observation / body weight / dam weight + systemic / in life …
[47] = group: parental, systemic / in life observation / water consumption / water consumption + systemic / pathology gross / sperm measure / sperm morphology
[48] = group: reproductive, reproductive / offspring survival early / live fetuses / live fetuses
[49] = group: reproductive, reproductive / offspring survival early / live fetuses / live fetuses + reproductive / reproductive performance / gestational length / …
[50] = systemic / pathology microscopic / liver / eosinophilic focus + systemic / pathology microscopic / liver / clear cell focus
[51] = systemic / pathology microscopic / liver / eosinophilic focus + systemic / pathology microscopic / liver / clear cell focus + systemic / …

In the case of `O=c1[nH]cc(F)c(=O)[nH]1` [5-Fluorouracil], the LOAEL (rat [1]; [21]) is reported as over 7.42 mg/kg/day, the NOAEL (rat [1]; [21]) is reported as at least 7.42 mg/kg/day and the LEL (rat [1]; [22]) is reported as 3.85 mg/kg/day. The NEL (rat [1]; [22]) was under 3.85 mg/kg/day, the LEL (mouse [2]) was 30 mg/kg/day and the LOAEL (mouse [2]) was over 30 mg/kg/day. It also gave an NEL (mouse [2]) of under 30 mg/kg/day and an NOAEL (mouse [2]) of at least 30 mg/kg/day.
With `CC(=O)Nc1ccc(O)cc1` [Acetaminophen] the NOAEL (rat [3]; systemic / in life observation / body weight / body weight + systemic / in life observation / clinical signs / reduced body size + systemic…) was 310 mg/kg/day, the LOAEL (rat [3]; systemic / in life observation / body weight / body weight + systemic / pathology microscopic / liver / cytomegaly + systemic / pathology …) was 625 mg/kg/day and the LEL (rat [3]; [23]) was 40 mg/kg/day. It also gave an NEL (rat [3]; [23]) of under 40 mg/kg/day, an LOAEL (mouse [4]; [24]) of 1880 mg/kg/day and an NEL (mouse [4]; [24]) of 480 mg/kg/day. The NOAEL (mouse [4]; [24]) was 930 mg/kg/day, the LEL (mouse [4]; systemic / pathology microscopic / liver / cytomegaly + systemic / pathology microscopic / liver / karyomegaly + systemic / pathology …) was 930 mg/kg/day and the LOAEL (rat [5]; [25]) was 30 mg/kg/day. For the same molecule, the NOAEL (rat [5]; [25]) was under 30 mg/kg/day, the LEL (rat [5]; [26]) was 30 mg/kg/day and the NEL (rat [5]; [26]) was under 30 mg/kg/day. The LEL (mouse [6]; [27]) was 357 mg/kg/day, the LOAEL (mouse [6]; [27]) was over 1430 mg/kg/day and the NEL (mouse [6]; [27]) was under 357 mg/kg/day. It also gave an NOAEL (mouse [6]; [27]) of at least 1430 mg/kg/day, an LEL (mouse [6]; [28]) of 1430 mg/kg/day and an LOAEL (mouse [6]; [28]) of over 1430 mg/kg/day. For the same molecule, the NEL (mouse [6]; [28]) was 715 mg/kg/day, the NOAEL (mouse [6]; [28]) was at least 1430 mg/kg/day and the NEL (mouse [6]; group: reproductive, reproductive / offspring survival early / birth index / birth index) was 715 mg/kg/day. The LEL (mouse [6]; [29]) was 1430 mg/kg/day, the LOAEL (mouse [6]; [29]) was over 1430 mg/kg/day and the NOAEL (mouse [6]; [29]) was at least 1430 mg/kg/day. The NEL (rat [7]; [30]) was 310 mg/kg/day, the NOAEL (rat [7]; [30]) was 310 mg/kg/day and the LEL (rat [7]; [31]) was 625 mg/kg/day. The LOAEL (rat [7]; [31]) was 625 mg/kg/day, the LOAEL (mouse [8]; systemic / in life observation / body weight / body weight) was 1000 mg/kg/day and the LEL (mouse [8]; [32]) was 90 mg/kg/day. The NEL (mouse [8]; [32]) was under 90 mg/kg/day and the NOAEL (mouse [8]; [32]) was 450 mg/kg/day.
Molecule `O=C1c2ccccc2C(=O)C1C(=O)C(c1ccccc1)c1ccc(Cl)cc1` (stereo not drawn) [Chlorophacinone] has an LEL (rat [9]; [33]) of 0.0125 mg/kg/day, an LOAEL (rat [9]; [33]) of 0.0125 mg/kg/day and an NEL (rat [9]; [33]) of under 0.0125 mg/kg/day. It also gave an NOAEL (rat [9]; [33]) of under 0.0125 mg/kg/day, an LEL (rat [9]; [34]) of 0.1 mg/kg/day and an LOAEL (rat [9]; [34]) of 0.1 mg/kg/day. The NEL (rat [9]; [34]) was 0.05 mg/kg/day, the NOAEL (rat [9]; [34]) was 0.05 mg/kg/day and the LOAEL (rabbit; [35]) was 0.025 mg/kg/day. The NOAEL (rabbit; [35]) was 0.01 mg/kg/day, the LEL (rabbit; reproductive / offspring survival early / offspring survival early other / NOS + systemic / in life observation / clinical signs / red or …) was 0.025 mg/kg/day and the NEL (rabbit; systemic / in life observation / clinical signs / red or crusty deposits around eyes, ears, nose, or mouth + systemic / in life observation…) was 0.01 mg/kg/day.
`c1ccc(C2CO2)cc1` (stereo not drawn) [Styrene oxide] gave an LOAEL (rat [10]; [36]) of over 3000 mg/kg/day, an NEL (rat [10]; [36]) of 360 mg/kg/day and an NOAEL (rat [10]; [36]) of at least 3000 mg/kg/day. The LEL (rat [10]; systemic / pathology microscopic / liver / hyperplasia) was 750 mg/kg/day, the LEL (mouse [11]) was 900 mg/kg/day and the LOAEL (mouse [11]) was over 900 mg/kg/day. For the same molecule, the NEL (mouse [11]) was 600 mg/kg/day, the NOAEL (mouse [11]) was at least 900 mg/kg/day and the LOAEL (rat [12]; [37]) was over 550 mg/kg/day. For the same molecule, the NOAEL (rat [12]; [37]) was at least 550 mg/kg/day, the LEL (rat [12]; [38]) was 275 mg/kg/day and the NEL (rat [12]; [38]) was under 275 mg/kg/day. For the same molecule, the LEL (mouse [13]) was 375 mg/kg/day, the LOAEL (mouse [13]) was over 750 mg/kg/day and the NEL (mouse [13]) was under 375 mg/kg/day. The NOAEL (mouse [13]) was at least 750 mg/kg/day, the LEL (rat [14]) was 50 mg/kg/day and the LOAEL (rat [14]) was over 250 mg/kg/day. The NEL (rat [14]) was under 50 mg/kg/day and the NOAEL (rat [14]) was at least 250 mg/kg/day.
For `O=C(O)c1cc(N=Nc2ccc(S(=O)(=O)Nc3ccccn3)cc2)ccc1O` [Sulfasalazine], the LEL (mouse [15]; [39]) was 675 mg/kg/day, the NEL (mouse [15]; [39]) was under 675 mg/kg/day and the LOAEL (mouse [15]; systemic / pathology microscopic / liver / hypertrophy) was 1350 mg/kg/day. The NOAEL (mouse [15]; systemic / pathology microscopic / liver / hypertrophy + systemic / clinical chemistry / alanine aminotransferase (alt/sgpt) / alanine …) was 675 mg/kg/day, the LEL (rat [16]; [40]) was 600 mg/kg/day and the LOAEL (rat [16]; [40]) was over 600 mg/kg/day. The NEL (rat [16]; [40]) was 300 mg/kg/day, the NOAEL (rat [16]; [40]) was at least 600 mg/kg/day and the LOAEL (rat [16]; [41]) was over 600 mg/kg/day. It also gave an NOAEL (rat [16]; [41]) of at least 600 mg/kg/day, an LEL (rat [16]; [42]) of 150 mg/kg/day and an NEL (rat [16]; [42]) of under 150 mg/kg/day. The NOAEL (rat [17]; systemic / organ weight / kidney / absolute + systemic / pathology microscopic / kidney / hyperplasia) was 168 mg/kg/day, the LOAEL (rat [17]; systemic / organ weight / kidney / absolute + systemic / pathology microscopic / kidney / hyperplasia + systemic / in life observation / …) was 338 mg/kg/day and the LEL (rat [17]; [43]) was 84 mg/kg/day. The NEL (rat [17]; [43]) was under 84 mg/kg/day, the LEL (rat [18]; [44]) was 84 mg/kg/day and the NEL (rat [18]; [44]) was under 84 mg/kg/day. It also gave an LOAEL (rat [18]; [45]) of 338 mg/kg/day, an NOAEL (rat [18]; [45]) of 169 mg/kg/day and an LEL (rat [19]; [27]) of 100 mg/kg/day. The LOAEL (rat [19]; [27]) was over 400 mg/kg/day, the NEL (rat [19]; [27]) was under 100 mg/kg/day and the NOAEL (rat [19]; [27]) was at least 400 mg/kg/day. It also gave an LOAEL (rat [19]; [46]) of over 400 mg/kg/day, an NOAEL (rat [19]; [46]) of at least 400 mg/kg/day and an LEL (rat [19]; [47]) of 100 mg/kg/day. The NEL (rat [19]; [47]) was under 100 mg/kg/day, the LEL (rat [19]; [48]) was 100 mg/kg/day and the NEL (rat [19]; [48]) was under 100 mg/kg/day. For the same molecule, the LOAEL (rat [19]; [49]) was over 400 mg/kg/day, the NOAEL (rat [19]; [49]) was at least 400 mg/kg/day and the LOAEL (mouse [20]; [50]) was 675 mg/kg/day. For the same molecule, the NOAEL (mouse [20]; [50]) was under 675 mg/kg/day, the LEL (mouse [20]; [51]) was 675 mg/kg/day and the NEL (mouse [20]; [51]) was under 675 mg/kg/day.
